Source: patent US10189887B2, “Polypeptides and uses thereof for reducing CD95-mediated cell motility” (INSERM (INSTITUT NATIONAL DE LA SANTÉ ET DE LA RECHERCHE …, priority 2014, dated 2019)
Ends that are not written are not given here.

Experiments:
CD95/PLCγ1 = target: T1, CD95/PLCγ1 (Homo sapiens, UniProt P19174); assay: PLCγ1 recruitment to CD95 (immunoprecipitation and immunoblotting); assay type: cell-based; conditions: HEK cells co-transfected with PLCγ1 and construct
T1 construct: endogenous in cells; host or cells: CEM (human leukemic T-cell line)
T1 sequence (P19174 2-1290 limits assumed): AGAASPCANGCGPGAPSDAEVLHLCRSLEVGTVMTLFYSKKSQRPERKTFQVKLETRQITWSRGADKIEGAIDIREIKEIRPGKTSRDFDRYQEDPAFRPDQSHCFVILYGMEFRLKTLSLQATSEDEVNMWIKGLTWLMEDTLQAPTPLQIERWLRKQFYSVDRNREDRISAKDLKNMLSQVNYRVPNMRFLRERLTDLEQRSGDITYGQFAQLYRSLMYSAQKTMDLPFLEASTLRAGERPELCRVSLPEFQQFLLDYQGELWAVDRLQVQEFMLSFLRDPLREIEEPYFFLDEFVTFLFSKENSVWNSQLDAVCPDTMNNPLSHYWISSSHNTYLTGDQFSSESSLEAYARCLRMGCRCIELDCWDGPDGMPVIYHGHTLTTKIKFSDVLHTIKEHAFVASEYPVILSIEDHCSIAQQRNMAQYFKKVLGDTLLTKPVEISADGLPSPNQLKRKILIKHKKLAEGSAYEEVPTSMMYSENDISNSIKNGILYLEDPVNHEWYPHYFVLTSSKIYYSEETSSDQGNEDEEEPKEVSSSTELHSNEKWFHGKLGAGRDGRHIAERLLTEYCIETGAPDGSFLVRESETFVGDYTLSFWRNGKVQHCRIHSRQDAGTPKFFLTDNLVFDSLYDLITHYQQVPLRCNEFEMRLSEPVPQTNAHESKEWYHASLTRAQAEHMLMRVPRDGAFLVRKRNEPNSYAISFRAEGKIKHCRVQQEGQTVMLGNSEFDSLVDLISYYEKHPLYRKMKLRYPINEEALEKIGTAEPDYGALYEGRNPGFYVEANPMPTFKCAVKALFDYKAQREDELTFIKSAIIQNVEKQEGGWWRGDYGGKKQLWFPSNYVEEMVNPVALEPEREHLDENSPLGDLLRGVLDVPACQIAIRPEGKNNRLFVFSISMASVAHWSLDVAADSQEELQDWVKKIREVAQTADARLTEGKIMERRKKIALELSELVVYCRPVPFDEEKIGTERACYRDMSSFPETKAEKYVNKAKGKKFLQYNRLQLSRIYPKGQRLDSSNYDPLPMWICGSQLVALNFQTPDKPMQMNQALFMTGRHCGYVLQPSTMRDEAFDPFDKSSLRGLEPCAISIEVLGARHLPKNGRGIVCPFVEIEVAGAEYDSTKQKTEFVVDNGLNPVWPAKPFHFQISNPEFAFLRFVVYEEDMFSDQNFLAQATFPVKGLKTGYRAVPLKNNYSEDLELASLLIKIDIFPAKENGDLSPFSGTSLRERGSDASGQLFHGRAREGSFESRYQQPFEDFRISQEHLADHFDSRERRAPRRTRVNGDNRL
Experimental: T-cells (5×10^7 cells per condition) were stimulated with Ig-CD95L or cl-CD95L (100 ng/mL) for indicated times at 37° C. Cells were lysed, incubated with APO1.3 (1 ug/mL) for 15 min at 4° C. and CD95 was immunoprecipitated using A/G protein-coupled magnetic beads (Ademtech, Pessac, France) for 1 h. After extensive washing, the immune complex was resolved by SDS-PAGE and immunoblotting was performed with indicated antibodies.
Cells were lyzed for 30 minutes at 4° C. in lysis buffer (25 mM HEPES pH 7.4, 1% v/v Triton X-100, 150 mM NaCl, 2 mM EGTA supplemented with a mix of protease inhibitors (Sigma-Aldrich)). Protein concentration was determined by the bicinchoninic acid method (PIERCE, Rockford, Ill., USA) according to the manufacturer's protocol. Proteins were separated on a 12% SDS-PAGE and transferred to a nitrocellulose membrane (GE Healthcare, Buckinghamshire, England). The membrane was blocked 15 minutes with TBST (50 mM Tris, 160 mM NaCl, 0.05% v/v Tween 20, pH 7.8) containing 5% w/v dried skimmed milk (TBSTM). Primary antibody was incubated overnight at 4° C. in TBSTM. The membrane was intensively washed (TBST) and then the peroxydase-labeled anti-rabbit or anti-mouse (SouthernBiotech, Birmingham, Ala., US) was added for 45 minutes. The proteins were visualized with the enhanced chemiluminescence substrate kit (ECL, GE Healthcare).

[1] = test system: CD95-mediated Ca^2+ response; assay: Calcium response to cl-CD95L in Jurkat cells (Fura2/FuraPE3 video imaging); assay type: cell-based; conditions: Jurkat pre-incubated 1 hr, 10 μM peptide; 100 ng/ml cl-CD95L
Experimental: (§1) Cells were loaded with Fura2-AM (1 μM) at resting temperature for 30 min in Hank's Balanced Salt Solution (HBSS). After washing with HBSS, the cells were incubated for 15 min in the absence of Fura2-AM to complete de-esterification of the dye. Cells were placed in a thermostated chamber (37° C.) of an inverted epifluorescence microscope (Olympus IX70) equipped with a ×40, UApo/340-1.15 W water-immersion objective (Olympus), and fluorescence micrograph images were captured at 510 nm and at 12-bit resolution by a fast-scan camera (CoolSNAP fx Monochrome, Photometrics). To minimize UV light exposure, 4×4 binning function was used. Fura2-AM was alternately excited at 340 and 380 nm, and ratios of the resulting images (excitations at 340 and 380 nm and emission filter at 520 nm) were produced at constant intervals (5 s or 10 s according to the stimulus). […] Fluorescent images were pseudocolored using the IMD display mode in MetaFluor and assembled without further manipulation in Photoshop (Adobe). Raw data were acquired with MetaFluor and graphed in Origin (OriginLab). [Ca^2+]i was calculated using the following equation: [Ca^2+]i=Kd(R−Rmin)/(R−Rmax)×Sf2/Sf1, where Kd is the Fura2-AM dissociation constant at the two excitation wavelengths (F340/F380); Rmin is the fluorescence ratio in the presence of minimal calcium, obtained by chelating Ca^2+ with 10 mM EGTA; Rmax is the fluorescence ratio in the presence of excess calcium, obtained by treating cells with 1 μM ionomycin; Sf2 is the fluorescence of the Ca^2+-free form; and Sf1 is the fluorescence of the Ca^2+-bound form of Fura2-AM at excitation wavelengths of 380 and 340 nm, respectively. In some experiments cells were placed in a Ca^2+-free medium consisting of the HBSS described above in which CaCl2 was omitted and 100 μM EGTA was added in order to chelate residual Ca^2+ ions. This medium was added to the cells just before recording to avoid leak of the intracellular calcium stores.
T cells were loaded with Fura-PE3-AM (1 μM) at room temperature for 30 min in Hank's Balanced Salt Solution (HBSS). After washing, the cells were incubated for 15 min in the absence of Fura-PE3-AM to complete de-esterification of the dye. Cells were placed in the temperature controlled chamber (37° C.) of an inverted epifluorescence microscope (Olympus IX70) equipped with an ×40 UApo/340-1.15 W water-immersion objective (Olympus), and fluorescence micrograph images were captured at 510 nm and 12-bit resolution by a fast-scan camera (CoolSNAP fx Monochrome, Photometrics). To minimize UV light exposure, a 4×4 binning function was used. Fura-PE3 was alternately excited at 340 and 380 nm, and the ratios of the resulting images (emission filter at 520 nm) were produced at constant intervals (10 seconds). The Fura-PE3 ratio (Fratio 340/380) images were analyzed offline with Universal Imaging software, including Metafluor and Metamorph. Fratio reflects the intracellular Ca^2+ concentration changes. Each experiment was repeated 3 times, and the average of more than 20 single-cell traces was analyzed.

[2] = test system: CD95-mediated Ca^2+ response; assay: Calcium response to cl-CD95L in activated PBL; assay type: cell-based, human; conditions: activated PBL pre-incubated 1 hr, 10 μM peptide; 100 ng/ml cl-CD95L
Experimental: as §1
All cells were purchased from ATCC (Molsheim Cedex, France). T leukemic cell lines CEM, H9 and Jurkat were cultured in RPMI supplemented with 8% heat-inactivated FCS (v/v) and 2 mM L-glutamine at 37° C. in a 5% CO2 incubator. CEM-IRC cell expressing a low amount of plasma membrane CD95 was described in (Beneteau et al., 2007; Beneteau et al., 2008). […]
T cells were loaded with Fura-PE3-AM (1 μM) at room temperature for 30 min in Hank's Balanced Salt Solution (HBSS). […] Cells were placed in the temperature controlled chamber (37° C.) of an inverted epifluorescence microscope (Olympus IX70) equipped with an ×40 UApo/340-1.15 W water-immersion objective (Olympus), and fluorescence micrograph images were captured at 510 nm and 12-bit resolution by a fast-scan camera (CoolSNAP fx Monochrome, Photometrics). […]

[3] = test system: CD95-mediated Ca^2+ response; assay: Calcium response to cl-CD95L in MEF; assay type: cell-based; conditions: MEFs pre-incubated 1 hr, 10 μM peptide; 100 ng/ml cl-CD95L
Experimental: Cells were loaded with Fura2-AM (1 μM) at resting temperature for 30 min in Hank's Balanced Salt Solution (HBSS). After washing with HBSS, the cells were incubated for 15 min in the absence of Fura2-AM to complete de-esterification of the dye. Cells were placed in a thermostated chamber (37° C.) of an inverted epifluorescence microscope (Olympus IX70) equipped with a ×40, UApo/340-1.15 W water-immersion objective (Olympus), and fluorescence micrograph images were captured at 510 nm and at 12-bit resolution by a fast-scan camera (CoolSNAP fx Monochrome, Photometrics). To minimize UV light exposure, 4×4 binning function was used. Fura2-AM was alternately excited at 340 and 380 nm, and ratios of the resulting images (excitations at 340 and 380 nm and emission filter at 520 nm) were produced at constant intervals (5 s or 10 s according to the stimulus). […] Fluorescent images were pseudocolored using the IMD display mode in MetaFluor and assembled without further manipulation in Photoshop (Adobe). Raw data were acquired with MetaFluor and graphed in Origin (OriginLab). […]

CD95^(175-210)-mCherry: construct consisting of CD95 amino acids 175 to 210 (calcium-inducing domain) fused to mCherry, expressed in HEK cells (KRKEVQKTCRKHRKENQGSHESPTLNPETVAINLSD-mCherry)
interaction with PLCγ1 (co-immunoprecipitation) (CD95/PLCγ1): interacted with PLCγ1 | PLCγ1 recruitment to CD95 (CD95/PLCγ1; CD95L 100 ng/mL): inhibited its recruitment to CD95

TAT peptide control: TAT control peptide, SEQ ID NO: 5 (RKKRRQRRRGGSIELDDPRPR; TAT-CONTROL) [reference compound]
calcium response to cl-CD95L [1]: did not significantly modify the calcium response | calcium response to cl-CD95L [2]: did not significantly modify the calcium response | initial phase of the calcium response to cl-CD95L [3]: did not modify the initial phase
